# Reference: patent US7531500B2, “Preventing airway mucus production by administration of EGF-R antagonists” (The Regents of the University of California, priority 1998, dated 2009)
# Experiments:
# Format in all cases: cell-based, human
# NCI-H292 cells [1] = assay: Northern analysis for MUC5 gene expression in NCI-H292 cells; details: EGF or TGFα 25 ng/ml, TNFα 20 ng/ml; 12 h, 24 h
# Experimental: Cell culture. A human pulmonary mucoepidermoid carcinoma cell line, NCI-H292 cells, were grown in RPMI11640 medium containing 10% fetal bovine serum, penicillin (100 U/ml), streptomycin (100 μg/ml) at 37° C. in a humidified 5% CO2 water-jacketed incubator. […] In inhibition studies with an EGF-R tyrosine kinase inhibitor, BIBX1522 (10 μg/ml, generously provided by Boehringer Ingelheim Inc., Ingelheim, Germany), cells were pretreated with BIBX1522 30 min before adding growth factors. After incubation, cells grown in a T-75 flask were used for total RNA extraction or protein extraction, and 8-chamber slides were used for Alcian blue/PAS-staining to visualize mucins.
# NCI-H292 cells [2] = assay: In situ hybridization for MUC5AC gene in NCI-H292 cells (Example 2); details: within 12 h
# Experimental: Cell Culture. NCI-H292 cells, a human pulmonary mucoepidermoid carcinoma cell line, were grown in RPMI 1640 medium containing 10% fetal bovine serum, penicillin (100 U/ml), streptomycin (100 μg/ml) and Hepes (25 mM) at 37° C. in a humidified 5% CO2, water-jacketed incubator. Either 6-well culture plates or 8-chamber slides were used to culture the cells. When confluent, cells were incubated for 1 h with neutrophils (10^6 cells/ml) alone, TNFα alone (recombinant human TNFα, 20 ng/ml, Genzyme, Cambridge, Mass.), IL-8 (recombinant human IL-8, 10^−8 M, Genzyme) alone, fMLP (10^−8 M, Sigma, St. Louis, Mo.) alone, TNFα plus neutrophils, IL-8 plus neutrophils, fMLP plus neutrophils, hydrogen peroxide (H2O2, 200 μM), cigarette smoke solution or TGFα (recombinant human TGFα, 0.1-25 ng/ml, Calbiochem, San Diego, Calif.). The cells were then washed and incubated with fresh medium alone. Experiments were terminated at preselected times (for mRNA, 6 h and 12 h; for protein, 24 h). As controls, cells were incubated with medium alone for same time periods. […] NCI-H292 cells were incubated for 1 h with either neutrophils that had been incubated with TNFα (20 ng/ml) for 1 h and then washed with sterile PBS to avoid contamination with the supernatant (e.g., molecules released from neutrophils), or the NCI-H292 cells were incubated with supernatant only. […]
# NCI-H292 cells [3] = assay: MUC5AC mRNA and protein in NCI-H292 cells incubated with cigarette smoke solution (Example 7); details: within 6 hours, increased at 12 hours
# Experimental: NCI-H292 cells, a human pulmonary mucoepidermoid carcinoma cell line, were grown in RPMI 1640 medium containing 10% fetal bovine serum, penicillin (100 U/ml), streptomycin (100 μg/ml) and Hepes (25 mM) at 37° C. in a humidified 5% CO2 water-jacketed incubator. Either 6-well culture plates or 8-chamber slides were used to culture the cells. When confluent, cells were incubated for 1 hour with cigarette smoke solution. The cells were then washed and incubated with fresh medium alone. Experiments were terminated at preselected times (for mRNA, 6 hours and 12 hours; for protein, 24 hours). As controls, cells were incubated with medium alone for same time periods. […] The effects of a selective inhibitor of platelet-derived growth factor receptor tyrosine kinase (tyrphostin AG1295, 100 μM, Calbiochem), and a negative control for tyrphostins (tyrphostin A1, 100 μM, Calbiochem) were also examined. The role of reactive oxygen species was examined using a scavenger of oxygen free radicals DMSO (1%, Sigma), or superoxide dismutase (SOD, 300 U/ml, Sigma).
# In situ hybridization was performed using a human EGFR probe, which contains a 350-bp cDNA fragment of the human EGFR gene (pTRI-EGFR-human probe template, Ambion, Austin, Tex.) and a human MUC5AC probe, which contains a 298-bp cDNA fragment of the human MUC5AC gene, The 350-bp cDNA human EGFR was subcloned into pBluescript II SK-vector at Kpn I and EcoR I sites. This pBluescript was used to generate human EGFR antisense and sense probes. Hybridization was performed as described previously. Lou et al. (1998) Am. J. Respir. Crit. Care Med. 157:1927-1934. In brief, the cells grown on the 8-chamber slides were fixed in 4% paraformaldehyde, rehydrated in 0.5×SSC, and then acetylated in triethanolamine and acetic anhydride. Hybridization was carried out with 2500-4000 cpm/μl of antisense or sense probe in 50% deionized formamide, 0.3 M NaCl, 20 mM Tris, 5 mM EDTA, 1× Denhardt's solution, 20 mM dithiothreitol, 10% dextran sulfate, 0.5 mg/ml yeast tRNA, and 0.5 mg/ml sonicated salmon sperm DNA at 58° overnight. Posthybridization treatment consisted of washes with 2×SSC, 1 mM EDTA, 10 mM β-mercaptoethanol at room temperature, incubation with RNase solution (20 μg/ml) for 30 min at room temperature, and further washes in 0.1×SSC, 1 mM EDTA, 10 mM β-mercaptoethanol at 55° C. for 2 hours and then in 0.5×SSC at room temperature for 20 minutes. Specimens were dehydrated, air-dried, and covered with Kodak NBT nuclear track emulsion (Eastman Kodak, Rochester, N.Y.) for autoradiography. After exposure for 7 to 21 days at 4° C., the slides were developed, fixed, and counterstained with hematoxylin.
# MUC5AC protein was measured as described previously. Takeyama et al. (1999) Proc. Natl. Acad. Sci. USA 96:3081-3086. In brief, cell lysates were prepared with PBS at multiple dilutions, and 50 μl of each sample was incubated with bicarbonate-carbonate buffer (50 μl) at 40° C. in a 96-well plate (Maxisorp Nunc, Fisher Scientific, Santa Clara, Calif.), until dry. Plates were washed three times with PBS and blocked with 2% bovine serum albumin, fraction V (Sigma) for 1 hour at room temperature. Plates were again washed three times with PBS and then incubated with 50 μl of MUC5AC mAb (1:1 00) that was diluted with PBS containing 0.05% Tween 20. After 1 hour, the wells were washed three times with PBS, and 100 μl horseradish peroxidase-goat anti-mouse IgG conjugate (1:10,000) was dispensed into each well. After 1 hour, plates were washed three times with PBS. Color reaction was developed with 3,3′,5,5′-tetramethylbenzidine (TMB) peroxidase solution (Kirkegaard & Perry Laboratories, Gaithersburg, Md.) and stopped with 2N H2S04. Absorbance was read at 450 nm.
substance,measurement,setting,value
"TGFα: transforming growth factor alpha, EGF-R ligand (recombinant human; rat synthetic in vivo)",MUC5 gene expression on incubation with mediator,NCI-H292 cells [1],clearly expressed at 24 h
same,MUC5AC gene expression,NCI-H292 cells [2],up-regulated
same,MUC5AC mRNA expression,NCI-H292 cells [3],increased
